“Also recorded” adds a separate entry of the source. Where two headings read alike, the source gives them in different places.

Data on six compounds can be found in patent publication US8591892B2, “FTY720 increases CD74 expression and sensitizes cancer cells to anti-CD74 antibody-mediated cell death” (The Ohio State University, priority 2011, dated 2013).

Series [1] has as its system MCL cell lines (Jeko-1, Mino, UPN-1, Z-138). Description: Immunoblot for LC3-I/LC3-II (autophagic flux). The format is cell-based, human. An excerpt: (§1) FIG. 1. […] Actin was used as loading control. […] Actin was used as loading control.
(In western blotting, separated proteins are transferred to a membrane and probed.)

Series [2] has as its system MCL cell lines. As to the kind of experiment: Cytotoxicity of OSU-2S. The format is cell-based.
Series [3] has as its system MCL cell lines (Jeko-1, Mino, UPN-1, Z-138). Description: Immunoblot for p62. In kind it is cell-based, human. The settings on record: UPN-1 and Z-138 cells, 24 hours.
Source text: as §1

Series [4] concerns Jeko-1 and Mino cells. Description: Acridine orange staining, flow cytometry (lysosomal membrane permeability). In kind it is cell-based, human. The note with it: 8 hours, vs untreated control.
Method: Cells were then stained with AO (1 μg/mL) for 15 minutes. The relative changes in FL1 fluorescence were assessed by flow cytometry. Representative histograms summarizing AO fluorescence intensity of MCL treated with FTY720, chloroquine, rapamycin or combinations are shown (MFI of treated cells is normalized to the untreated controls. (C) Jeko-1 and Mino cells were treated with FTY720 at the indicated concentration in the presence or absence of cathepsin inhibitor III (5 and 10 μM). Cell death was determined by annexin V/PI staining and flow cytometry at 8 hours. Data are shown as percentage of annexin V−/PI− cells (live cells).
To assess lysosomal membrane permeability, FTY720 treated cells were incubated with acridine orange (MOLECULAR PROBES; INVITROGEN).
AO at acidic pH (i.e., lysosomal) fluoresces red, however, when AO leaks into a neutral pH (i.e., cytosolic), it causes an increase in green fluorescence that can be detected by flow cytometry.
In series [5] the test system is Jeko-1 and Mino cell lines. As to the kind of experiment: Transmission electron microscopy of ultrastructural changes. The note with it: Jeko and Mino cells; chloroquine 40 μM, FTY720 10 μM. The format is cell-based, human.
Method: Monolayer cells were grown in chamber slides in medium containing chloroquine (40 μM) or FTY720 (10 μM) for 12 hours. Prior to processing, the cells were fixed for 30 min in 2.5% glutaraldehyde in 0.1 M phosphate buffer pH 7.4. […] Images were obtained with a PEI TECHNAI™ G2 Spirit Transmission Electron Microscope.
We next examined ultrastructural morphologic changes in Jeko-1 and Mino cell lines treated with FTY720 using TEM.
The test system of series [6] is surface CD74 on Jeko-1 and Mino cells. Description: CD74-FITC staining and flow cytometry (CD74 MFI). The settings on record: 8 and 24 hours, vs untreated control or rapamycin. In kind it is cell-based, human. For orientation: In flow cytometry, cells or beads pass a laser one at a time.
Method: (B) CD74 MFI of MCL cells treated with FTY720, chloroquine or rapamycin at the indicated concentrations after 8 and 24 hours. […] P values are calculated comparing FTY720, chloroquine and rapamycin treatment to the untreated control.
MCL cell lines were treated with FTY720, chloroquine (SIGMA, St Louis, Mo.) or rapamycin (CALBIOCHEM, San Diego, Calif.) for 8 and 24 hours and CD74 mean fluorescence intensity (MFI) was determined relative to a specific isotype control. After treatment, cells (1×10^6) were washed in phosphate-buffered saline (PBS), stained with CD74-FITC (BD BIOSCIENCES, San Jose, Calif.) for 15 minutes at 4° C., then rinsed in PBS and analyzed by flow cytometry (EPICS-XL™; BECKMAN COULTER, Fullerton, Calif.). A total of 10,000 events were collected and analyzed using Windows Multiple Document Interface for Flow Cytometry (WinMDI, Scripps Research Institute, San Diego, Calif.).
To determine the influence of FTY720 treatment on CD74 surface levels, Jeko-1 and Mino cells were incubated with FTY720, chloroquine or rapamycin for 8 and 24 hours. CD74 MFI values were determined by CD74-FITC staining and flow cytometry.
Series [7] relates to MCL cell lines (Jeko-1, Mino, UPN-1, Z-138). Description: Confocal microscopy of total cellular LC3. The format is cell-based, human.
Series [8] has as its system BxPC-3. As to the kind of experiment: Flow cytometry of CD74, HLA-DR, CEACAM5 with directly labeled MAbs, with and without IFN-γ. The format is cell-based. Here is the method: (§2) Expression of CD74, HLA-DR, and carcinoembryonic antigen (CEACAM5) was determined in untreated cells and cells exposed to 200 U of IFN-γ for 48 h by flow cytometry. Cells were stained with directly labeled MAbs in comparison to a directly labeled human IgG control. Antibodies were labeled using ALEXA FLUOR® 488 (Invitrogen, Carlsbad, Calif.). For determination of cytoplasmic antigen expression, cells were permeabilized prior to staining using the BD CYTOFIX/CYTOPERM™ kit (BD Biosciences, San Jose, Calif.).

Series [9] concerns RL. The description is as above. In kind it is cell-based. Here is the method: as §2
The subject of series [10] is Capan-1. The series is described as above. In kind it is cell-based. The protocol:
as §2

For series [11], the system named is HT29. The description is as above. The format is cell-based. The protocol:
as §2

Series [12] relates to KMS11. Described as above. In kind it is cell-based. Here is the method:
as §2

For series [13], the system named is Panc-1. Described as above. In kind it is cell-based. The protocol:
as §2

Series [14] deals with Lovo. Described as above. The format is cell-based. Here is the method:
as §2

The test system of series [15] is U87. Described as above. In kind it is cell-based. Here is the method:
as §2

Series [16] deals with U118. Described as above. In kind it is cell-based. Here is the method: as §2
Series [17] concerns LS174T. The description is as above. In kind it is cell-based. Here is the method:
as §2

Series [18] concerns Moser. Described as above. In kind it is cell-based. Here is the method:
as §2

Series [19] deals with TU118. The description is as above. The format is cell-based. Here is the method:
as §2

For series [20], the system named is FSCCL. Described as above. The format is cell-based. The protocol:
as §2

Series [21] relates to Aspc-1. The description is as above. The format is cell-based. Here is the method: as §2
In series [22] the test system is CAG. Described as above. In kind it is cell-based. The protocol:
as §2

In series [23] the target is DDD of the RII form of PKA (RIIα dimers) (Homo sapiens, UniProt P13861). The note with it: read-out: binding constant for DDD; cited from earlier work.
DDD of the RII form of PKA (RIIα dimers), sequence (P13861 whole entry, canonical isoform): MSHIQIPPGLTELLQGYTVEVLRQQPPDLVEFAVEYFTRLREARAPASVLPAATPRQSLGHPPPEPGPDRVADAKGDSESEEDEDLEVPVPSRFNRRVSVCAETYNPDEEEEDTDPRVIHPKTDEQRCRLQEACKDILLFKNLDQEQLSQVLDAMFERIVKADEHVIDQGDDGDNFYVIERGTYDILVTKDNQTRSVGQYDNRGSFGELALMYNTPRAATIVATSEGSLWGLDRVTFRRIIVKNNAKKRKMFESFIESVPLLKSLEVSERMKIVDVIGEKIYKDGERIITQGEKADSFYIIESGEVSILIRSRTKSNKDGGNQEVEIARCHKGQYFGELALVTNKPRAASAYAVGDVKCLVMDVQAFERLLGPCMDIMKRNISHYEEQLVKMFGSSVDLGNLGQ
The test system of series [24] is RII isoform of PKA compared with the RI isoform. The note with it: cited from earlier work.
Series [25] has as its system CD74 in Jeko-1, Mino, UPN-1 and Z-138 cells. Description: Confocal microscopy of total CD74 with rhodamine-conjugated milatuzumab. The format is cell-based, human. The note with it: Jeko-1 and Mino cells, non-immobilized, 5 μg/ml.
Method: Cells were stained with an anti-CD74 antibody (FITC conjugated and CD74 MFI was measured by flow cytometry. Representative histograms summarizing the MFI of untreated and treated Jeko-1, Mino, UPN-1 and Z-138 cells are shown. (C) The amount of total cellular CD74 was determined by confocal microscopy. Jeko-1, Mino, UPN-1 and Z-138 cells were treated with FTY720 at the indicated doses, chloroquine (40 μM), rapamycin (10 μM) or the combination of FTY720 and chloroquine, for 4, 8 and 24 hours. CD74 fluorescence intensity was measured in 4 microscopic fields and integrated intensity was averaged relative to the number of cells per field (˜180-220 cells per condition).
MCL cells for confocal fluorescence microscopy were fixed and stained as previously described (Alinari et al., 2011, Blood 117:4530-41). Briefly, after exposure to drugs, cells were made adherent on a microscope slide by centrifugation. Immediately after cytospin, cells were fixed in cold acetone for two minutes. For CD74 immunofluorescence, the cells were incubated with rhodamine-conjugated milatuzumab. […] Nuclei were stained blue with DAPI (Vector laboratories, Burlingame, Calif.). […] For quantification, 4 microscopic fields per slide were analyzed. Nuclei count was performed using an edge constrained marker-controlled watershed for iterative fluorescence microscopic cell image splitting.

With `CCC[C@@](N)(CO)CCc1ccc(OCCCCCC(C)C)cc1` [OSU-2S, (S)-2-amino-2-(4-[(6-methylheptyl)-oxy]phenethyl)pentan-1-ol], in [1] (Jeko-1, Mino and Z-138 cell lines, 24 hours, Western blotting), the LC3-II levels result is “increased levels of LC3-II”. Besides, the cytotoxicity entry in series [2] (MCL cell lines) is recorded as “exhibited cytotoxicity”. The cytotoxic activity entry in series [2] (MCL cell lines and primary cells) is “significant cytotoxic activity”.

Regarding `CCN(CC)CCCC(C)Nc1ccnc2cc(Cl)ccc12` (stereo not drawn) [chloroquine], in series [1], the LC3-II levels result is given as “significant increase in LC3-II levels; also recorded: increased levels of LC3-II”. The p62 levels entry in series [3] is “significant increase of p62 levels”. Also, the “acridine orange green fluorescence (FL1)” value in series [4] is given as “slight increase of green fluorescence”. The “ultrastructural morphologic changes (TEM)” value in series [5] is recorded as “increased accumulation of autophagosomes”. Further, the “CD74 MFI (surface)” value in series [6] is given as “slight increase of CD74 MFI”. The LC3 fluorescence intensity entry in [7] was “statistically significant increase in LC3 fluorescence intensity”.

On to “Labetuzumab: anti-CEA antibody, directly labeled”, for which the “% change of cell surface expression with IFNγ” value in series [8] (BxPC-3) is reported as 25.6%; in [9] (RL) it was 17.3%; in series [10] (Capan-1), −15.1%; in series [11] (HT29) it was 213.5%; in series [12] (KMS11), 7.1%; in [13] (Panc-1) it was 6.3%. The “% change of cell surface expression with IFNγ” value is given as 48.6% in [14] (Lovo); 23.8% in series [15] (U87); 2.4% in series [16] (U118); 167.9% in [17] (LS174T); 20.9% in [18] (Moser); 13.0% in series [19] (TU118). Also, the “% change of cell surface expression with IFNγ” value in series [20] (FSCCL) came out at 7.6%; in series [21] (Aspc-1), 26.3%; in series [22] (CAG) it was 3.0%. For the same compound, the “% change of cytoplasmic expression with IFNγ” value was 52.7% in series [8] (BxPC-3); 37.9% in series [9] (RL); 8.7% in [10] (Capan-1); 122.7% in [11] (HT29); −11.4% in [12] (KMS11); 161.2% in series [13] (Panc-1). In addition, the “% change of cytoplasmic expression with IFNγ” value in [14] (Lovo) stood at 52.4%; in [15] (U87), 79.0%; in series [16] (U118), 78.2%; in [17] (LS174T), 195.9%; in series [18] (Moser), 41.8%; in series [19] (TU118) it was 115.5%. The “% change of cytoplasmic expression with IFNγ” value in [20] (FSCCL) was found to be 100.7%; in [21] (Aspc-1), 53.2%; in series [22] (CAG) it was 27.4%. In addition, the “Cell surface expression (staining with directly labeled MAb)” value in series [8] (BxPC-3 + IFNγ 200 U, 48 h) worked out at 7.0; in series [8] (BxPC-3, without IFN-γ), 5.6; in series [9] (RL + IFNγ 200 U, 48 h), 2.9; in series [9] (RL, without IFN-γ), 2.4; in series [10] (Capan + IFNγ 200 U, 48 h), 48.8; in [10] (Capan-1, without IFN-γ), 57.5. For the same compound, the “Cell surface expression (staining with directly labeled MAb)” value in [11] (HT29 + IFNγ 200 U, 48 h) is reported as 34.9; in series [11] (HT29, without IFN-γ), 11.1; in series [12] (KMS11 + IFNγ 200 U, 48 h) it was 2.3; in series [12] (KMS11, without IFN-γ), 2.1; in series [13] (Panc-1 + IFNγ 200 U, 48 h), 4.4; in [13] (Panc-1, without IFN-γ), 4.1. The “Cell surface expression (staining with directly labeled MAb)” value is given as 84.4 in series [14] (Lovo + IFNγ 200 U, 48 h); 56.8 in series [14] (Lovo, without IFN-γ); 4.5 in series [15] (U87 + IFNγ 200 U, 48 h); 3.7 in series [15] (U87, without IFN-γ); 5.6 in series [16] (U118 + IFNγ 200 U, 48 h); 5.5 in series [16] (U118, without IFN-γ). For the same compound, the “Cell surface expression (staining with directly labeled MAb)” value is 163.7 in [17] (LS174T + IFNγ 200 U, 48 h); 61.1 in series [17] (LS174T, without IFN-γ); 77.2 in series [18] (Moser + IFNγ 200 U, 48 h); 63.8 in series [18] (Moser, without IFN-γ); 5.29 in series [19] (TU118 + IFNγ 200 U, 48 h); 4.68 in series [19] (TU118, without IFN-γ). In addition, the “Cell surface expression (staining with directly labeled MAb)” value in [20] (FSCCL + IFNγ 200 U, 48 h) worked out at 2.8; in series [20] (FSCCL, without IFN-γ), 2.6; in series [21] (Aspc-1 + IFNγ 200 U, 48 h) it was 66.8; in series [21] (Aspc-1, without IFN-γ), 52.9; in series [22] (CAG + IFNγ 200 U, 48 h), 5.2; in series [22] (CAG, without IFN-γ), 5.0.

With QIEYLAKQIVDNAIQQA [AKAP-IS], the Kd in series [23] was 0.4 nM.

On to QIEYVAKQIVDYAIHQA [SuperAKAP-IS], for which, in [24], the “selectivity for RII over RI isoform of PKA” value is reported as “five order of magnitude higher selectivity”.

As to “rhodamine-conjugated milatuzumab: fluorescence labeled milatuzumab made with NHS-rhodamine”, in [25], the “internalization of CD74” value is on record as “rapid internalization of CD74”.
